Experiment: xn = mol fraction of the nth substance listed
Conditions: 101 kPa, Liquid; for speed of sound: Pulse-echo method

CCCNCCC [dipropylamine] + COC(C)(C)C
Conditions | mass density, 288.15 K [kg/m3] | mass density, 293.15 K [kg/m3] | mass density, 298.15 K [kg/m3] | mass density, 303.15 K [kg/m3] | mass density, 308.15 K [kg/m3] | speed of sound, 288.15 K [m/s] | speed of sound, 293.15 K [m/s] | speed of sound, 298.15 K [m/s] | speed of sound, 303.15 K [m/s] | speed of sound, 308.15 K [m/s]
x2 = 0 | 745.064 | 740.501 | 735.924 | 731.333 | 726.732 | 1235.1 | 1213.4 | 1191.9 | 1170.4 | 1149
x2 = 0.0455 | 744.529 | 739.961 | 735.381 | 730.779 | 726.199 | 1226.5 | 1204.6 | 1182.9 | 1161.5 | 1140.1
x2 = 0.0993 | 743.741 | 739.141 | 734.529 | 729.903 | 725.268 | 1218.5 | 1196.6 | 1174.9 | 1153.4 | 1132
x2 = 0.1886 | 743.725 | 739.088 | 734.436 | 729.765 | 725.081 | 1206.8 | 1184.9 | 1163 | 1141.4 | 1120
x2 = 0.304 | 744.015 | 739.319 | 734.607 | 729.854 | 725.082 | 1191.2 | 1169.1 | 1147.2 | 1125.5 | 1103.9
x2 = 0.3981 | 744.373 | 739.628 | 734.96 | 730.165 | 725.325 | 1179 | 1156.8 | 1134.8 | 1112.9 | 1091.2
x2 = 0.4954 | 744.92 | 740.107 | 735.272 | 730.41 | 725.531 | 1164.9 | 1142.8 | 1120.8 | 1099.1 | 1076.8
x2 = 0.5839 | 745.36 | 740.49 | 735.593 | 730.664 | 725.713 | 1152.3 | 1130 | 1107.8 | 1085.9 | 1063.8
x2 = 0.7057 | 745.893 | 740.912 | 735.904 | 730.891 | 725.831 | 1131.9 | 1109.4 | 1087 | 1064.9 | 1042.5
x2 = 0.7685 | 746.206 | 741.193 | 736.153 | 731.058 | 725.925 | 1121.7 | 1099.1 | 1076.6 | 1054.4 | 1032
x2 = 0.8876 | 746.684 | 741.588 | 736.455 | 731.289 | 726.066 | 1103.9 | 1080.8 | 1057.9 | 1035.3 | 1012.9
x2 = 0.9337 | 746.947 | 741.806 | 736.641 | 731.421 | 726.159 | 1097 | 1073.6 | 1050.7 | 1028 | 1005.4
